PMC11277476, “Synthesis and Biological Evaluation of Novel 2-Aroyl Benzofuran-Based Hydroxamic Acids as Antimicrotubule Agents” (International Journal of Molecular Sciences, 2024)

Experiments:
[1] = tested on: tubulin (colchicine site); experiment: Inhibition of [3H]colchicine binding to tubulin; parameters: species or system bovine; details: tubulin 0.5 µM, [3H]colchicine 5 µM, tested compound 5 µM
Method: (§1) Bovine brain tubulin was purified as described previously. To evaluate the effects of the compounds on tubulin assembly in vitro [77], varying concentrations were preincubated with 10 μM tubulin in 0.8 M monosodium glutamate (pH 6.6) at 30 °C, and the reaction mixtures were then cooled to 0 °C. After addition of GTP, the mixtures were transferred to 0 °C cuvettes in Beckman Coulter (Brea, CA, USA) DU-7400/DU-7500 recording spectrophotometers equipped with electronic temperature controllers and were warmed to 30 °C, and the assembly of tubulin was observed turbidimetrically. […] Inhibition of colchicine binding to tubulin was measured as described before, except that the reaction mixtures contained 0.5 μM tubulin and 5 μM each of [^3H]colchicine and test compound. Only one DEAE-cellulose filter was used per sample, and filtration was via gravity.

[2] = biological target: T1, human recombinant HDAC8 (Homo sapiens, UniProt Q9BY41); experiment: HDAC isoform inhibition, fluorogenic substrate, HDAC8; format: biochemical; details: mean ± SE, read-out: IC50 (µM) hHDAC8
T1 construct: purchased BPS Bioscience 50008
T1 sequence (Q9BY41 1-377): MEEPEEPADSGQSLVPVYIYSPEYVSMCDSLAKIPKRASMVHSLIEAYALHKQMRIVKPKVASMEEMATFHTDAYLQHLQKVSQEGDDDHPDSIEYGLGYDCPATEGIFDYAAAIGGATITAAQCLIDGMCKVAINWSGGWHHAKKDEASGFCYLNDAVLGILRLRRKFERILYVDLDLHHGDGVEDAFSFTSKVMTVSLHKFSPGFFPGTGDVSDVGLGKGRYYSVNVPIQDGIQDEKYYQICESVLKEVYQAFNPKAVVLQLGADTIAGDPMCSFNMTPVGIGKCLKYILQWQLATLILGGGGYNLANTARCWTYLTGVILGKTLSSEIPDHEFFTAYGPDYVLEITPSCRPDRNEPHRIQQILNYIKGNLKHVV
Method: (§2) Further experiments were also carried out to evaluate the inhibitory activities of test compounds on selected HDAC isoforms. […] Following an incubation of 15 min at RT, fluorescence was measured in an EnSight multimodal plate reader (PerkinElmer, Boston, MA, USA) with an excitation wavelength of 360 nm and an emission wavelength of 450 nm.

[3] = tested on: HeLa cells; experiment: In vitro growth inhibition (resazurin, 72 h), HeLa; format: cell-based; details: Homo sapiens, concentration inhibiting tumor cell proliferation by 50%, mean ± SE
[4] = tested on: MCF-7 cells; experiment: In vitro growth inhibition (resazurin, 72 h), MCF-7; format: cell-based; details: Homo sapiens, MCF7, mean ± SE
[5] = tested on: panel of five human cancer cell lines (HeLa, MDA-MB-231, A549, HT-29, MCF-7); experiment: In vitro growth inhibition, range over the panel of five cancer cell lines; details: read-out: IC50 values, range over the cancer cell line panel
Method: All the cell lines were purchased from the American Type Culture Collection (ATCC, Manassas, VA, USA). Drug stock solutions were prepared for each compound by dissolving them in DMSO at 10 mM.
Cancer cells were seeded in tissue treated, flat bottom, 384-well plates (Corning, Corning, NY, USA) according to their optimal density, in 27 μL of complete medium per well, using a Microlab STAR 96-CORE liquid handling system (Hamilton Bonaduz, Bonaduz, Switzerland) as described previously [75]. Each compound was tested in a 6-points 2-fold dose–response curve, and each dose was tested in duplicate within each plate, in three independent experiments. The final concentration of DMSO in the wells never exceeded 0.1%, which was the maximum concentration.
Only plates with acceptable Z-prime quality metrics (Z′ > 0.6) were further analyzed for the drug screening. Raw data were normalized according to the following equation: cell viability (%) = (x − POS)/(NEG − POS) × 100, where x is the relative fluorescence units (RFU) collected from each single well, NEG is the mean of intraplate negative controls (DMSO, corresponding to 100% cell viability), and POS is the mean of intraplate positive controls (Bortezomib 1 μΜ, equal to 0% cell viability).

[6] = tested on: HT-29 cells; experiment: In vitro growth inhibition (resazurin, 72 h), HT-29; format: cell-based; details: Homo sapiens, mean ± SE
[7] = tested on: bovine brain tubulin; experiment: Inhibition of tubulin polymerization (turbidimetric); format: biochemical; details: tubulin at 10 μM; 20 min incubation at 30 °C; read-out: Tubulin Assembly IC50 ± SD
Method: as §1

[8] = biological target: T2, human recombinant HDAC6 (Homo sapiens, UniProt Q9UBN7); experiment: HDAC isoform inhibition, fluorogenic substrate, HDAC6; format: biochemical; details: mean ± SE, read-out: IC50 (µM) hHDAC6
T2 construct: purchased BPS Bioscience 50056
T2 sequence (Q9UBN7 1-1215): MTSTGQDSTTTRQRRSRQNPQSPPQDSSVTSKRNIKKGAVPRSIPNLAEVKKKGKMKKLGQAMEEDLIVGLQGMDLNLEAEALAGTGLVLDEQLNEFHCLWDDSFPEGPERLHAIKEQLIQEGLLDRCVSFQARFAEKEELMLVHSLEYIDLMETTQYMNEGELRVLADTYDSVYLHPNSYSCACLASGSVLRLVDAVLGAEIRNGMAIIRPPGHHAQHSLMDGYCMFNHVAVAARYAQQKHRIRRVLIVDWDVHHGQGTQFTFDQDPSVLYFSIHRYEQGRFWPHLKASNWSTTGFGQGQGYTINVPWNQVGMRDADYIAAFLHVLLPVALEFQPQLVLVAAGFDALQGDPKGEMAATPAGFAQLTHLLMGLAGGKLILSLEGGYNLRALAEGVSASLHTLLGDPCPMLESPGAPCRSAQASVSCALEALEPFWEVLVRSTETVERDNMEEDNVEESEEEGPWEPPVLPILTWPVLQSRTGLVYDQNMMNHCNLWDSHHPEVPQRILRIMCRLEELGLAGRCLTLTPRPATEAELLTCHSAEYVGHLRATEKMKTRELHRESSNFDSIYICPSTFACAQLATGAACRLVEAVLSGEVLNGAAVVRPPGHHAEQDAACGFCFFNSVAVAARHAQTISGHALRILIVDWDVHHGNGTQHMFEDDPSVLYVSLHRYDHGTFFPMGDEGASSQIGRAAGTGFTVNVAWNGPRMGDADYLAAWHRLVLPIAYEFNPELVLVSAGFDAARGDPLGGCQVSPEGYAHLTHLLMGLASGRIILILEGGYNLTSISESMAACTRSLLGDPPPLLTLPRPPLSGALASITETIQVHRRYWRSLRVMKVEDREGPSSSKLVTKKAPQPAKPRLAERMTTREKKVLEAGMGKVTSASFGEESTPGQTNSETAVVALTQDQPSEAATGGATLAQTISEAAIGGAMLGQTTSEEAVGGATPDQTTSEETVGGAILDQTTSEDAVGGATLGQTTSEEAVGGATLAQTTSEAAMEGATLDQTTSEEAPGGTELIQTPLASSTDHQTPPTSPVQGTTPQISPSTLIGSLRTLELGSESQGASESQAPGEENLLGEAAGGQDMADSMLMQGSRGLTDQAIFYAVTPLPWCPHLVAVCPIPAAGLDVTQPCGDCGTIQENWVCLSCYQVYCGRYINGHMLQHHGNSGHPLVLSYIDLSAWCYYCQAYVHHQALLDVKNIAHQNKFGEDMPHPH
Method: as §2

[9] = tested on: MDA-MB-231 cells; experiment: In vitro growth inhibition (resazurin, 72 h), MDA-MB-231; format: cell-based; details: Homo sapiens, mean ± SE
[10] = biological target: T3, human recombinant HDAC1 (Homo sapiens, UniProt Q13547); experiment: HDAC isoform inhibition, fluorogenic substrate, HDAC1; format: biochemical; details: mean ± SE, read-out: IC50 (µM) hHDAC1
T3 construct: purchased BPS Bioscience 50051
Method: as §2

[11] = biological target: T4, human recombinant HDAC10 (Homo sapiens, UniProt Q969S8); experiment: HDAC isoform inhibition, fluorogenic substrate, HDAC10; format: biochemical; details: mean ± SE, read-out: IC50 (µM) hHDAC10
T4 construct: purchased BPS Bioscience 50060
T4 sequence (Q969S8 1-669): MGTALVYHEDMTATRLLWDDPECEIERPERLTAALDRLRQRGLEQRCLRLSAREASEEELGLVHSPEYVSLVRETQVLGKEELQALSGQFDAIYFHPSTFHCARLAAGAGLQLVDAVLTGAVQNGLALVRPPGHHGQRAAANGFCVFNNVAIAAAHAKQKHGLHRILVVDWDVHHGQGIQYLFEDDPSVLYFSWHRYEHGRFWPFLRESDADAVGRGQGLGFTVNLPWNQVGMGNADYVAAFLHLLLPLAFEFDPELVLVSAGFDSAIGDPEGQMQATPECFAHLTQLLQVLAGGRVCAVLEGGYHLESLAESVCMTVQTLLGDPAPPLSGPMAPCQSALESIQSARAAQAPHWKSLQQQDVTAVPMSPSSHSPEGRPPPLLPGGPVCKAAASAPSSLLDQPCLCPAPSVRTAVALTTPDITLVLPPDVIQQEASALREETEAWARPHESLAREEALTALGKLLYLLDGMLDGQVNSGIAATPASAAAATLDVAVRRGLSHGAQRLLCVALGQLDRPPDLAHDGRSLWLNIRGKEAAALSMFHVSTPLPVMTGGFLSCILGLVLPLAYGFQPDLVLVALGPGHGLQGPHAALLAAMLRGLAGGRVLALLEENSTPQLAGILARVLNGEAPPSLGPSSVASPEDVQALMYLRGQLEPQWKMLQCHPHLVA
Method: as §2

[12] = tested on: A549 cells; experiment: In vitro growth inhibition (resazurin, 72 h), A549; format: cell-based; details: Homo sapiens, mean ± SE
[13] = tested on: acetylated histone H3 (Ac-H3K9) in HT-29 cells; experiment: Western blot of acetylated histone H3 (Ac-H3K9) in HT-29 cells; format: cell-based, human; details: 10 µM, 6 h
Method: HT-29 cells were treated with selected compounds for 6 h at 10 µM, lysed, and then processed as previously described.
Antibodies directed against total histone H3 and its acetylated form (Ac-H3K9) were purchased from Cell Signaling Technology, Danvers, Massachusetts, while anti-vinculin antibody was purchased from Santa Cruz Biotechnology. Membranes were visualized using ECL select (GE Healthcare), and images were acquired using the iBright FL1500 Imaging System (Thermo Fisher Scientific, Waltham, MA, USA). Anti-vinculin (1:25,000, Santa Cruz Biotechnology, Dallas, TX, USA) was used as loading controls.

[14] = tested on: HT-29 cells; experiment: Annexin V-PI flow cytometric analysis of apoptosis, HT-29; format: cell-based, human; details: 96 h
Method: The quantification of apoptosis induced by the test compounds was carried out with flow cytometric analysis using the Annexin-V Fluos kit (Roche Diagnostics, Milan, Italy) following the manufacturer’s instructions. Cancer cells treated with the test compounds for the indicated time points and concentrations were then labeled with annexin V/FITC and PI and analyzed with BD FACS Celesta^TM Flow Cytometer (BD Bioscience, Franklin Lakes, NJ, USA) using the FL1 and FL3 channel, respectively, and FlowJo_v10.7.1 software.

[15] = tested on: HT-29 cells; experiment: Cell cycle analysis (PI, flow cytometry); format: cell-based, human; details: 250 nM for 24 h (figure legend)
Method: HT29 cells were treated with the indicated compounds for 24 h and then harvested and fixed in 70% ice-cold ethanol for 24 h. The cells were next treated with a 0.1% v/v solution of Triton X-100 in phosphate buffered saline (PBS) containing 10 μg/mL RNAse A and 20 μg/mL PI. The cells were incubated at room temperature for 30 min and then analyzed on a BD FACS Celesta^TM Flow Cytometer (BD Bioscience, Franklin Lakes, NJ, USA) in the FL3 channel. DNA histograms were analyzed using FlowJo_v10.7.1 software (BD Bioscience, Franklin Lakes, NJ, USA).

[16] = tested on: human peripheral blood mononuclear cells (PBMC), not stimulated with PHA; experiment: Cytotoxicity in resting PBMC (resazurin, 72 h); format: cell-based; details: mean ± SEM
Excerpt: (§3) Peripheral blood mononuclear cells (PBMC), obtained from human peripheral blood (leucocyte-rich plasma-buffy coats) of healthy volunteers using a Lymphoprep^TM (Serumwerk Bernburg AG) gradient, were used for the evaluation of the cytotoxic potential of compounds in normal human cells.
(§4) After extensive washing with saline solution (Hank’s Buffer Saline Solution, BioConcept, Allschwil, Switzerland), quiescent PBMCs were resuspended (1.0 × 10^6 cells/mL) in RPMI-1640 medium supplemented with 10% FBS. To evaluate cytotoxicity in proliferating PBMCs cultures, cells were resuspended at a concentration of 5 × 10^5 cells/mL in a growth medium containing […] of PHA (Irvine Scientific, Santa Ana, CA, USA). The same cellular density was utilized for resting PBMC cultures, without the addition of PHA. The tested compounds were added at different concentrations, and after a 72 h incubation, cell viability was determined using the resazurin test as described above.

[17] = tested on: human peripheral blood mononuclear cells (PBMC) stimulated with PHA; experiment: Cytotoxicity in PHA-stimulated PBMC (resazurin, 72 h); format: cell-based; details: mean ± SEM
Excerpt: as §3, §4

T3 sequence (Q13547 whole entry, canonical isoform): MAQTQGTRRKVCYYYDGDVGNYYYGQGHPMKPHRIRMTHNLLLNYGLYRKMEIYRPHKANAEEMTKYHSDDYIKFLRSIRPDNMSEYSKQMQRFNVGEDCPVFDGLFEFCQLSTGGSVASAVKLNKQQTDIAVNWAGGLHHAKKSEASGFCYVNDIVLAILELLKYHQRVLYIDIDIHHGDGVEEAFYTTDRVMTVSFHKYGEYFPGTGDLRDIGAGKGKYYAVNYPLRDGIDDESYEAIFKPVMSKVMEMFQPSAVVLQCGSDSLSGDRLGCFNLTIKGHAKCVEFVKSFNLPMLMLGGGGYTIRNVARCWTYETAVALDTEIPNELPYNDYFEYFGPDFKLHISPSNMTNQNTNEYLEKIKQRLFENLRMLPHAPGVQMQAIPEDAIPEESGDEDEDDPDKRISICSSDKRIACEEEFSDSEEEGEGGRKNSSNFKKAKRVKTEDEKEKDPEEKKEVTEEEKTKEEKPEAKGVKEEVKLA

melting point [°C]	Colchicine Binding % Inhibition ± SD [1] [%]	IC50 [2] [µM]	IC50 [3] [nM]	IC50 [4] [nM]	IC50 [5] [nM]	IC50 [6] [nM]	IC50 [7] [nM]	IC50 [8] [µM]	IC50 [9] [nM]	IC50 [10] [µM]	IC50 [11] [µM]	IC50 [12] [nM]	Compound	acetylated histone H3 (Ac-H3K9) level, Western blot [13]	induction of apoptosis / cell death (annexin V/PI), in words [14]	Percentage of HT-29 cells in G1 phase [15] [%]	Percentage of HT-29 cells in G2/M phase [15] [%]	Percentage of HT-29 cells in S phase [15] [%]	GI50 [16] [µM]	GI50 [17] [µM]
268 to 270	69 ± 0.1	> 30	0.4 ± 0.04	9.5 ± 0.7	0.4 to 19	6.6 ± 0.96	490 ± 100	> 30	16.1 ± 0.01	14.1 ± 1	> 30	18.7 ± 0.72	COc1cc2oc(C(=O)c3cc(OC)c(OC)c(OC)c3)c(C)c2cc1C#CC(=O)NO [Compound 11a, N-Hydroxy-3-[6-methoxy-3-methyl-2-(3,4,5-trimethoxybenzoyl)-1-benzofuran-5-yl] prop-2-ynamide]	–	–	–	–	–	–	–
–	76 ± 2	–	3.9 ± 0.01	24 ± 8	–	75.3 ± 3.09	1200 ± 100	6.12 ± 0.41	41.9 ± 2.33	–	–	168 ± 5.31	COc1cc2oc(C(=O)c3ccccc3OC)c(C)c2cc1/C=C/C(=O)NO [Compound 6f, (E)-N-Hydroxy-3-(6-methoxy-2-(2-methoxybenzoyl)-3-methylbenzofuran-5-yl)acrylamide]	significantly increased acetylated histone H3 (Ac-H3K9)	able to induce cell apoptosis	6.12	87.54	6.34	> 10	0.51 ± 0.1
